The source made the active and inactive calls. No cut-off for these calls is given here.
Columns and labels:
HOP-62 = experiment: Cytotoxicity against human HOP-62 cells assessed as cell viability after 48 hrs by MTT assay; assay type: functional, cell-based; conditions: HOP-62, 48 h
A549 [1] = experiment: Inhibition of colony formation in human A549 cells measured after 24 hrs; assay type: functional, cell-based; conditions: dose 0.1-1 µM, DDE = dose-dependent effect
Histone deacetylase 2 = Histone deacetylase 2 (Homo sapiens, UniProt Q92769); experiment: Inhibition of HDAC2 (unknown origin) by colorimetric method
Histone deacetylase 4 = Histone deacetylase 4 (Homo sapiens, UniProt P56524); experiment: Inhibition of HDAC4 (unknown origin) by colorimetric method
[2] = molecular target: T1, Protein deacetylase HDAC6 (Homo sapiens, UniProt Q9UBN7); experiment: Inhibition of HDAC6 (unknown origin) by colorimetric method
T1 sequence (Q9UBN7 whole entry): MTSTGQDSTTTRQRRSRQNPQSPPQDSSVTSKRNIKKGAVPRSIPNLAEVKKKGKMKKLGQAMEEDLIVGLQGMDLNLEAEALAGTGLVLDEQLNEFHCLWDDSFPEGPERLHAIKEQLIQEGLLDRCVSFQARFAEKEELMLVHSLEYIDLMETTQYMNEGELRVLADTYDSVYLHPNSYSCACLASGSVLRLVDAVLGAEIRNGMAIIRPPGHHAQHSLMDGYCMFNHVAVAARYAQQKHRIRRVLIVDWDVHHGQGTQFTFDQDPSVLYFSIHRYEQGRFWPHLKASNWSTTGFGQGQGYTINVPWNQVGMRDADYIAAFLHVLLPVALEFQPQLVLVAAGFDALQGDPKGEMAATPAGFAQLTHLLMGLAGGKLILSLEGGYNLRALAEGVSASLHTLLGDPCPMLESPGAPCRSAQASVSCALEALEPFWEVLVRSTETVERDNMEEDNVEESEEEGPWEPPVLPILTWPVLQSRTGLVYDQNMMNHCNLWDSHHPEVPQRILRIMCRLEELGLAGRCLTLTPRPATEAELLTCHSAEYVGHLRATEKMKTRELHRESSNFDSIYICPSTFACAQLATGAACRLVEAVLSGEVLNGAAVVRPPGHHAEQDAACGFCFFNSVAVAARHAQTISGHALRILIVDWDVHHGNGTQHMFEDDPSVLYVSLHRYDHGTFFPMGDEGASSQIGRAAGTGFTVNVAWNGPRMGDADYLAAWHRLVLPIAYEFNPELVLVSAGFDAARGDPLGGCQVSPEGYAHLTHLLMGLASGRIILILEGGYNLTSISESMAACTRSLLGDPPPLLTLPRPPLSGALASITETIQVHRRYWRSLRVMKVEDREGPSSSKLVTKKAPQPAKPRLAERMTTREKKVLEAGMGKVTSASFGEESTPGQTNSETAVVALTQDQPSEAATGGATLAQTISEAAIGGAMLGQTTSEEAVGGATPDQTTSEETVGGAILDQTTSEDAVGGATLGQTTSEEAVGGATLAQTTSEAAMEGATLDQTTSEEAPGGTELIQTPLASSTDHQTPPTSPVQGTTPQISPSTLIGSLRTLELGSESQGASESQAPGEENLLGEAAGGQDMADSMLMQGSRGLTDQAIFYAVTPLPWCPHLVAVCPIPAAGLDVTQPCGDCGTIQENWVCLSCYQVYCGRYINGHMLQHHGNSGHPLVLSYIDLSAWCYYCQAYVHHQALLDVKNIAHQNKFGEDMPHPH

Histone deacetylase 7 = molecular target: T2, Histone deacetylase 7 (Homo sapiens, UniProt Q8WUI4); experiment: Inhibition of HDAC7 (unknown origin) by colorimetric method
T2 sequence (Q8WUI4 whole entry): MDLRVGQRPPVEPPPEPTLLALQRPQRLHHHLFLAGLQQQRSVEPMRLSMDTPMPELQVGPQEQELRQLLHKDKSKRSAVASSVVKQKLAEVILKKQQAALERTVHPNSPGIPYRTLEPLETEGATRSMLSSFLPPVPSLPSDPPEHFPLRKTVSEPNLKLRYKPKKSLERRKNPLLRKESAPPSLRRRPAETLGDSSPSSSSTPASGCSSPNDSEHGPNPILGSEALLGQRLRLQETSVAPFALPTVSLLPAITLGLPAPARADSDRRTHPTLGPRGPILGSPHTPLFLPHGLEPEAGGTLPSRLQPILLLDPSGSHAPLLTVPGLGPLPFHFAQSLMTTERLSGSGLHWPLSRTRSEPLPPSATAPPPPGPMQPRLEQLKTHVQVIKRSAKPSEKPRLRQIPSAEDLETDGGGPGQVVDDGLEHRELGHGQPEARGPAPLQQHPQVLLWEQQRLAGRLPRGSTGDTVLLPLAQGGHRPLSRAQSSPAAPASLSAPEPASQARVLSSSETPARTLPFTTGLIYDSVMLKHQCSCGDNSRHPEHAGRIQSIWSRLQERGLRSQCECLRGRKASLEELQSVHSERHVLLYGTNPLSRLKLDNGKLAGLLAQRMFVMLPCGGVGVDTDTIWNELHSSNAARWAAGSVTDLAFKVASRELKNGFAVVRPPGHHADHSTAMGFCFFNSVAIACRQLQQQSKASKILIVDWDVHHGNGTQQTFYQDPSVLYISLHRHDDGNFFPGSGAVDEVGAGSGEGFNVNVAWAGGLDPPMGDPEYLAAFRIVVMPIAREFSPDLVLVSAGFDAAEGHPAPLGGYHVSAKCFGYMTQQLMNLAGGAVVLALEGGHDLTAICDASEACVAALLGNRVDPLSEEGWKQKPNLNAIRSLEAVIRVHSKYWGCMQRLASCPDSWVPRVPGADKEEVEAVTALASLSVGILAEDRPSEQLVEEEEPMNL

Homo sapiens [3] = species on record: Homo sapiens; experiment: Selectivity index, ratio of IC50 for HDAC4 (unknown origin) to IC50 for HDAC 6 (unknown origin)
Homo sapiens [4] = species on record: Homo sapiens; experiment: Selectivity index, ratio of IC50 for HDAC9 (unknown origin) to IC50 for HDAC 6 (unknown origin)
Homo sapiens [5] = species on record: Homo sapiens; experiment: Selectivity index, ratio of IC50 for HDAC 1 (unknown origin) to IC50 for HDAC 3 (unknown origin)
Homo sapiens [6] = species on record: Homo sapiens; experiment: Selectivity index, ratio of IC50 for HDAC 5 (unknown origin) to IC50 for HDAC 3 (unknown origin)
Homo sapiens [7] = species on record: Homo sapiens; experiment: Selectivity index, ratio of IC50 for HDAC 7 (unknown origin) to IC50 for HDAC 3 (unknown origin)
Homo sapiens [8] = species on record: Homo sapiens; experiment: Selectivity index, ratio of IC50 for HDAC 2 (unknown origin) to IC50 for HDAC 1 (unknown origin)
Homo sapiens [9] = species on record: Homo sapiens; experiment: Selectivity index, ratio of IC50 for HDAC8 (unknown origin) to IC50 for HDAC 1 (unknown origin)
A549 [10] = experiment: Downregulation of HDAC1 expression in human A549 cells at 0.1 to 1 uM after 24 hrs by Western blot analysis; assay type: functional, cell-based; conditions: dose 0.1-1 µM
A549 [11] = experiment: Downregulation of HDAC3 expression in human A549 cells at 0.1 to 1 uM after 24 hrs by Western blot analysis; assay type: functional, cell-based; conditions: dose 0.1-1 µM
A549 [12] = experiment: Inhibition of HDAC1/HDAC3/HDAC6 in human A549 cells assessed as increase in H3 acK9 level by Western blot analysis; assay type: cell-based

Sequence of Histone deacetylase 2 (Q92769 whole entry): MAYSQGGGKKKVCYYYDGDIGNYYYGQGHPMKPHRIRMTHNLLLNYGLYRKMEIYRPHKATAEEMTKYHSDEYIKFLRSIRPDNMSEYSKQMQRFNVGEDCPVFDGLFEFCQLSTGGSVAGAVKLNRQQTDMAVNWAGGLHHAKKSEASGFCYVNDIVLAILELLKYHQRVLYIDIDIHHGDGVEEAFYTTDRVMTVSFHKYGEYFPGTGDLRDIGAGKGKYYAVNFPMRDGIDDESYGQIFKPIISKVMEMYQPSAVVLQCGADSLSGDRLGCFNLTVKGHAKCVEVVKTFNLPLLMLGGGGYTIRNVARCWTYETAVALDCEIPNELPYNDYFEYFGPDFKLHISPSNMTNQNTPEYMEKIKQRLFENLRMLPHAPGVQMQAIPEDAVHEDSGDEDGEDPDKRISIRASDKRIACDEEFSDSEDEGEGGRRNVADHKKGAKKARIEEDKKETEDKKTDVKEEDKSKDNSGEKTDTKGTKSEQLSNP
Sequence of Histone deacetylase 4 (P56524 whole entry): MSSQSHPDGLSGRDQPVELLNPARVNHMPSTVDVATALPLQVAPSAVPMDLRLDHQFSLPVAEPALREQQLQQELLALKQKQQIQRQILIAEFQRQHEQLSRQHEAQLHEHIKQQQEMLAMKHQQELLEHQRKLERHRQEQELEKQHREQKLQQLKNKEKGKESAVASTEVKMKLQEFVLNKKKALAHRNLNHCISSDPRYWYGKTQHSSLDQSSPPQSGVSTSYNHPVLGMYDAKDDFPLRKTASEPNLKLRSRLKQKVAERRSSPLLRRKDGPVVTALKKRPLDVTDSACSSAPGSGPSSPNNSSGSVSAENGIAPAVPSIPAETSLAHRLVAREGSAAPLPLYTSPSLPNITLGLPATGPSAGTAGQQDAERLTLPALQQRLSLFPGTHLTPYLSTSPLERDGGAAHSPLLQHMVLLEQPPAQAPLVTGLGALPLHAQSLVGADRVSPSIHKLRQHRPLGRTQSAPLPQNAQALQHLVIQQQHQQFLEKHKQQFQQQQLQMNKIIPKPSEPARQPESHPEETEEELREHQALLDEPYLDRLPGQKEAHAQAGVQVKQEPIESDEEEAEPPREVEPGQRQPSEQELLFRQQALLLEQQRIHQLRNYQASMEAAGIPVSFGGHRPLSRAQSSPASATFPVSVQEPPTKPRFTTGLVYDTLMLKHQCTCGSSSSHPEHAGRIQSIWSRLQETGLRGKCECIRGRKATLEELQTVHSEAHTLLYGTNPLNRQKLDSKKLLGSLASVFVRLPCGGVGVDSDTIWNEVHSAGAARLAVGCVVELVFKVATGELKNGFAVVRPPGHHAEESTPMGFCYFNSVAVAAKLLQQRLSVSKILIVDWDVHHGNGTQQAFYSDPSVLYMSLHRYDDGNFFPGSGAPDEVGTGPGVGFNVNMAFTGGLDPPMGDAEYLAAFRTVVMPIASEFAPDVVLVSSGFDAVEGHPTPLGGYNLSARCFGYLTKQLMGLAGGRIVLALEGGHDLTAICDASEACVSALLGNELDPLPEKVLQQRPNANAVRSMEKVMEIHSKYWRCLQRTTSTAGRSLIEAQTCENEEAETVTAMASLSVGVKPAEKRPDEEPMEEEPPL

- IC50 (Histone deacetylase 2): 1260 nM
- IC50 (Histone deacetylase 4): 1630 nM
- IC50 [2]: 12.9 nM
- IC50 (Histone deacetylase 7): 4080 nM
- Ratio IC50 (Homo sapiens [3]): 126
- Ratio IC50 (Homo sapiens [4]): 335
- Ratio IC50 (Homo sapiens [5]): 0.72
- Ratio IC50 (Homo sapiens [6]): 9.01
- Ratio IC50 (Homo sapiens [7]): 59.6
- Ratio IC50 (Homo sapiens [8]): 25.2
- Ratio IC50 (Homo sapiens [9]): 3.56
SMILES: O=C(/C=C/c1ccc(CNc2ccc3nc4n(c(=O)c3c2)CCCCC4)cc1)NO
- IC50 (HOP-62): 900 nM
- inhibition (A549 [1]): Dde
- inhibition (A549 [10]): Active
- inhibition (A549 [11]): Active
- inhibition (A549 [12]): Active
